Source: patent US20150011751A1, “NOVEL TRIAZINE DERIVATIVE” (CARNA BIOSCIENCES, INC., priority 2012, published 2015)
pIC50: −log10 of the molar value.

Target: Dephosphorylated BTK (Homo sapiens, UniProt Q06187)
Assay: Test of activity inhibition against dephosphorylated BTK (mobility shift assay)

Sequence of Dephosphorylated BTK (Q06187 whole entry): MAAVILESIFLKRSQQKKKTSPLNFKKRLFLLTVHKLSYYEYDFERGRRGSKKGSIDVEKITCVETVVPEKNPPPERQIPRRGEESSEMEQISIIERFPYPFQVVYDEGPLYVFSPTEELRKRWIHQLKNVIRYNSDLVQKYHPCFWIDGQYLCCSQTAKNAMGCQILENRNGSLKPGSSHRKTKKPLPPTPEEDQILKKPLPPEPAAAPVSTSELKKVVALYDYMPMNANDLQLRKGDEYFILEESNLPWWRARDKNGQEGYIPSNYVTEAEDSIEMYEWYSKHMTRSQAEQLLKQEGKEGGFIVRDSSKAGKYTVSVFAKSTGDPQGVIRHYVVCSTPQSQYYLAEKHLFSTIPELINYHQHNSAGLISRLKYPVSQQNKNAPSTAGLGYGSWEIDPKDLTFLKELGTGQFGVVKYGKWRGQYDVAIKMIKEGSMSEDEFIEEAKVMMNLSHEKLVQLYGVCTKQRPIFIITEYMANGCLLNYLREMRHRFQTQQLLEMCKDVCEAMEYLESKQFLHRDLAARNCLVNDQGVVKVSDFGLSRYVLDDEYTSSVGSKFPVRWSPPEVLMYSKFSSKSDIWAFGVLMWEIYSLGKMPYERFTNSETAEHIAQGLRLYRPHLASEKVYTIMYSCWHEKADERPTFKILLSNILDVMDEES

SMILES | pIC50
CC(=O)N1CCN(c2ccc(Nc3nc(N)nc(-c4cccc(N5CCc6cc(C7CC7)cc(F)c6C5=O)c4CO)n3)cc2)CC1 [Example 220, 2-[3-(4-{[4-(4-Acetyl-piperazin-1-yl)phenyl]amino}-6-amino-1,3,5-triazin-2-yl)-2-(hy-droxymethyl)phenyl]-6-cyclopropyl-8-fluoro-3,4-dihydroisoquinolin-1(2H)-one] | 8.64
Nc1nc(Nc2ccn(C3CC3)c2)nc(-c2cccc(N3CCc4cc(C5CC5)cc(F)c4C3=O)c2CO)n1 [Example 277, 2-(3-{4-Amino-6-[(1-cyclo-propyl-1H-pyrrol-3-yl)amino]-1,3,5-tri-azin-2-yl}-2-(hydroxy-methyl)phenyl)-6-cyclo-propyl-8-fluoro-3,4-dihydroisoquinolin-1(2H)-one] | 8.48
CC(C)(C)c1ccc(C(=O)Nc2cccc(-c3nc(N)nc(Nc4ccc(C(N)=O)cc4)n3)c2CO)cc1 [Example 149, N-(3-{4-Amino-6-[(4-carbamoylphenyl)amino]-1,3,5-triazin-2-yl}-2-(hydroxymethyl)phe-nyl)-4-(tert-butyl) benzamide] | 9.30
Nc1nc(Nc2ccc(N3CCOCC3)cc2)nc(-c2cccc(NC(=O)c3cc4c(s3)CCC4)c2CO)n1 [Example 175, N-(3-{4-Amino-6-[(4-morpholinophenyl)amino]-1,3,5-triazin-2-yl}-2-(hydroxymethyl)phe-nyl)-5,6-dihydro-4H-cyclopenta[b]thiophene-2-carboxamide] | 8.44
CC(C)(C)c1ccc(C(=O)Nc2cccc(-c3nc(N)nc(Nc4ccc(N5CCOCC5)cn4)n3)c2CO)cc1 [Example 99, N-(3-{4-Amino-6-[(5-morpholinopyridin-2-yl)amino]-1,3,5-triazin-2-yl}-2-(hydroxymeth-yl)phenyl)-4-(tert-butyl)benzamide] | 7.97
NC(=O)Cn1cc(Nc2nc(N)nc(-c3cccc(N4CCc5cc(C6CC6)cc(F)c5C4=O)c3CO)n2)cn1 [Example 266, 2-[4-({4-Amino-6-[3-(6-cyclopropyl-8-fluoro-1-oxo-3,4-dihydroiso-quinolin-2(1H)-yl)-2-(hydroxymethyl)phenyl]-1,3,5-triazin-2-yl}amino)-1H-pyrazol-1-yl]acetamide] | 8.89
CC(C)(C)c1ccc(C(=O)Nc2cccc(-c3nc(N)nc(Nc4ccc5[nH]c(C(F)(F)F)nc5c4)n3)c2CO)cc1 [Example 187, N-[3-(4-Amino-6-{[2-(tri-fluoromethyl)-1H-benzo[d]imidazol-5-yl]amino}-1,3,5-triazin-2-yl)-2-(hydroxymeth-yl)phenyl]-4-(tert-butyl)benzamide] | 8.25
Cc1nccn1-c1ccc(Nc2nc(N)nc(-c3cccc(NC(=O)c4ccc(C(C)(C)C)cc4)c3CO)n2)cc1 [Example 172, N-[3-(4-Amino-6-{[4-(2-methyl-1H-imidazol-1-yl)phenyl]amino}-1,3,5-triazin-2-yl)-2-(hy-droxymethyl)phenyl]-4-(tert-butyl)benzamide] | 9.22
CC(C)(C)c1ccc(C(=O)Nc2cccc(-c3nc(N)nc(Nc4ccc(N5CCNCC5)cc4)n3)c2CO)cc1 [Example 126, N-[3-(4-Amino-6-{[4-(piperazin-1-yl)phenyl]amino}-1,3,5-triazin-2-yl)-2-(hydroxymeth-yl)phenyl]-4-(tert-butyl)benzamide] | 9.30
Cc1c(NC(=O)c2ccc(C(C)(C)C)cc2)cccc1-c1nc(N)nc(Nc2ccc(N3C[C@@H](C)O[C@@H](C)C3)cc2)n1 [Example 85, N-[3-(4-Amino-6-{[4-((2S, 6R)-2,6-dimethyl-morpholino)phenyl]ami-no}-1,3,5-triazin-2-yl)-2-methylphenyl]-4-(tert-butyl)benzamide] | 8.24
CC(C)(C)c1ccc(C(=O)Nc2cccc(-c3nc(N)nc(Nc4ccc(CC#N)cc4)n3)c2CO)cc1 [Example 148, N-[3-(4-Amino-6-{[4-(cyano-methyl)phenyl]ami-no}-1,3,5-triazin-2-yl)-2-(hydroxymethyl)phenyl]-4-(tert-butyl) benzamide] | 9.10
CCn1ccc(Nc2nc(N)nc(-c3cccc(N4CCc5cc(C6CC6)cc(F)c5C4=O)c3CO)n2)c1 [Example 231, 2-(3-{4-Amino-6-[(1-eth-yl-1H-pyrrol-3-yl)ami-no]-1,3,5-triazin-2-yl}-2-(hydroxymethyl)phenyl)-6-cyclopropyl-8-fluoro-3,4-dihydro-isoquinolin-1(2H)-one] | 8.77
CN1CCn2cc(Nc3nc(N)nc(-c4cccc(N5CCc6cc(C7CC7)cc(F)c6C5=O)c4CO)n3)cc2C1=O [Example 268, 2-(3-{4-Amino-6-[(2-meth-yl-1-oxo-1,2,3,4-tetra-hydropyrrolo[1,2-a]pyrazin-7-yl)amino]-1,3,5-triazin-2-yl}-2-(hydroxymethyl)phe-nyl)-6-cyclopropyl-8-fluoro-3,4-dihydroisoquinolin-1(2H)-one] | 8.92
CN1CCN(c2ccc(Nc3nc(N)nc(-c4cccc(N5CCc6cc(C7CC7)cc(F)c6C5=O)c4CO)n3)cc2)CC1 [Example 193, 2-[3-(4-Amino-6-{[4-(4-methylpiperazin-1-yl)phenyl]amino}-1,3,5-triazin-2-yl)-2-(hy-droxymethyl)phenyl]-6-cyclopropyl-8-fluoro-3,4-dihydroisoquinolin-1(2H)-one] | 8.96
CN1CCN(C)C(c2ccc(Nc3nc(N)nc(-c4cccc(NC(=O)c5ccc(C(C)(C)C)cc5)c4CO)n3)cc2)C1=O (stereo not shown) [Example 89, N-[3-(4-Amino-6-{[4-(1,4-dimethyl-3-oxo-piperazin-2-yl)phenyl]ami-no}-1,3,5-triazin-2-yl)-2-(hydroxymethyl)phenyl]-4-(tert-butyl) benzamide] | 9.22
CC(C)n1cc(Nc2nc(N)nc(-c3cccc(N4CCc5cc(C6CC6)cc(F)c5C4=O)c3CO)n2)cn1 [Example 222, 2-(3-{4-Amino-6-[(1-iso-propyl-1H-pyrazol-4-yl)amino]-1,3,5-tria-zin-2-yl}-2-(hydroxymeth-yl)phenyl)-6-cyclo-propyl-8-fluoro-3,4-di-hydroisoquinolin-1(2H)-one] | 9.40
CC(C)(C)c1ccc(C(=O)Nc2cccc(-c3nc(N)nc(Nc4ccc(N5CCNC5=O)cc4)n3)c2CO)cc1 [Example 167, N-[3-(4-Amino-6-{[4-(2-oxoimidazolidin-1-yl)phenyl]amino}-1,3,5-triazin-2-yl)-2-(hy-droxymethyl)phenyl]-4-(tert-butyl)benzamide] | 8.80
Nc1nc(Nc2cnn(C3CCNCC3)c2)nc(-c2cccc(N3CCc4cc(C5CC5)cc(F)c4C3=O)c2CO)n1 [Example 223, 2-[3-(4-Amino-6-{[1-(piperidin-4-yl)-1H-py-razol-4-yl]amino}-1,3,5-triazin-2-yl)-2-(hy-droxymethyl)phenyl]-6-cyclopropyl-8-fluoro-3,4-dihydro-isoquinolin-1(2H)-one] | 9.22
CC1(Cn2cc(Nc3nc(N)nc(-c4cccc(N5CCc6cc(C7CC7)cc(F)c6C5=O)c4CO)n3)cn2)CC1 [Example 273, 2-{3-[4-Amino-6-({1-[(1-methylcyclopropyl)methyl]-1H-pyrazol-4-yl}amino)-1,3,5-triazin-2-yl]-2-(hydroxymeth-yl)phenyl}-6-cyclo-propyl-8-fluoro-3,4-di-hydroisoquinolin-1(2H)-one] | 8.62
Cc1c(NC(=O)c2ccc(C(C)(C)C)cc2)cccc1-c1nc(N)nc(Nc2ccc(N3CCC(N4CCOCC4)CC3)cc2)n1 [Example 80, N-[3-(4-Amino-6-{[4-(4-morpholinopiperidin-1-yl)phenyl]amino}-1,3,5-triazin-2-yl)-2-methylphenyl]-4-(tert-butyl)benzamide] | 8.68
CC(C)(C)c1ccc(C(=O)Nc2cccc(-c3nc(N)nc(Nc4ccc(OCCN5CCCC5)cc4)n3)c2CO)cc1 [Example 152, N-{3-[4-Amino-6-({4-[2-(pyrrolidin-1-yl)eth-oxy]phenyl}amino)-1,3,5-triazin-2-yl]-2-(hy-droxymethyl)phenyl}-4-(tert-butyl)benzamide] | 8.92
CC(C)(C)c1ccc(C(=O)Nc2cccc(-c3nc(N)nc(Nc4ccc(OCCn5cccc5)cc4)n3)c2CO)cc1 [Example 150, N-{3-[4-({4-[2-(1H-Pyr-rol-1-yl)ethoxy]phe-nyl}amino)-6-amino-1,3,5-triazin-2-yl]-2-(hy-droxymethyl)phenyl}-4-(tert-butyl)benzamide] | 9.10
Nc1nc(Nc2ccc(N3CCOCC3)cc2)nc(-c2cccc(NC(=O)c3ccc4c(c3)CCC4)c2CO)n1 [Example 171, N-(3-{4-Amino-6-[(4-morpholinophenyl)amino]-1,3,5-triazin-2-yl}-2-(hydroxymethyl)phe-nyl)-2,3-dihydro-1H-indene-5-carboxamide] | 7.59
Cc1c(NC(=O)c2ccc(C(C)(C)C)cc2)cccc1-c1ncnc(Nc2ccc(C3C(=O)N(C)CCN3C)cc2)n1 (stereo not shown) [Example 37, 4-(tert-Butyl)-N-[3-(4-{[4-(1,4-dimethyl-3-oxopiperazin-2-yl)phe-nyl]amino}-1,3,5-tri-azin-2-yl)-2-methyl-phenyl]benzamide] | 8.57
CC(C)(C)c1ccc(C(=O)Nc2cccc(-c3nc(N)nc(Nc4cccc(Cn5cncn5)c4)n3)c2CO)cc1 [Example 162, N-{3-[4-({3-[(1H-1,2,4-Triazol-1-yl)methyl]phenyl}amino)-6-amino-1,3,5-triazin-2-yl]-2-(hydroxymethyl)phe-nyl}-4-(tert-butyl) benzamide] | 9.30
Nc1nc(Nc2ccc(OCCCO)cc2)nc(-c2cccc(N3CCc4cc(C5CC5)cc(F)c4C3=O)c2CO)n1 [Example 197, 2-[3-(4-Amino-6-{[4-(3-hydroxypropoxy)phe-nyl]amino}-1,3,5-tri-azin-2-yl)-2-(hydroxymeth-yl)phenyl]-6-cyclo-propyl-8-fluoro-3,4-di-hydroisoquinolin-1(2H)-one] | 8.62
COc1c(NC(=O)c2ccc(C(C)(C)C)cc2)cccc1-c1nc(N)nc(Nc2ccc(N3CCOCC3)cc2)n1 [Example 96, N-(3-{4-Amino-6-[(4-morpholinophenyl)amino]-1,3,5-triazin-2-yl}-2-methoxyphenyl)-4-(tert-butyl)benzamide] | 8.11
CC(C)(C)c1ccc(C(=O)Nc2cccc(-c3nc(N)nc(Nc4cccc(O)c4)n3)c2CO)cc1 [Example 121, N-(3-{4-Amino-6-[(3-hy-droxyphenyl)amino]-1,3,5-triazin-2-yl}-2-(hydroxymethyl)phenyl)-4-(tert-butyl)benza-mide] | 8.92
